What all share (assay type): functional
Common to all, as to conditions: route intraperitoneal

Experiment [1] relates to Mus musculus. The experiment can be described thus: Tested against Forest virus infection in mice at dose 100 mg/kg administered intraperitoneally; 0/12(0).
Experiment [2] relates to Mus musculus. The experiment can be described thus: Tested against Forest virus infection in mice at dose 100 mg/kg administered intraperitoneally.
The test system of experiment [3] is Mus musculus. Briefly: Tested against Forest virus infection in mice at dose 100 mg/kg administered intraperitoneally; 10/12(83).
For experiment [4], the system named is Mus musculus. Briefly: Tested against Forest virus infection in mice at dose 100 mg/kg administered intraperitoneally; 7/12(58).
For experiment [5], the system named is Mus musculus. Briefly: Tested against Forest virus infection in mice at dose 100 mg/kg administered intraperitoneally; 1/12(8).
Experiment [6] has as its system Mus musculus. Briefly: Tested against Forest virus infection in mice at dose 100 mg/kg administered intraperitoneally in experiment 2; 11/12(92).
Experiment [7] deals with Mus musculus. The experiment can be described thus: Tested against Forest virus infection in mice at dose 100 mg/kg administered intraperitoneally in experiment 3; 11/12(92).
The test system of experiment [8] is Mus musculus. Briefly: Tested against Forest virus infection in mice at dose 100 mg/kg administered intraperitoneally in experiment 1.
Experiment [9] has as its system Mus musculus. The experiment can be described thus: Tested against Forest virus infection in mice at dose 100 mg/kg administered intraperitoneally in experiment 2.
For experiment [10], the system named is Mus musculus. The experiment can be described thus: Tested against Forest virus infection in mice at dose 100 mg/kg administered intraperitoneally in experiment 3.
For experiment [11], the system named is Mus musculus. Briefly: Tested against Forest virus infection in mice at dose 100 mg/kg administered intraperitoneally in experiment 1; 9/12(75).

As to `CC1=C([C@@H]2O[C@H](CO)[C@@H](O)[C@H]2O)C2C(=O)N=C(N)N=C2N1` (stereo partly specified), in the experiment with Mus musculus [1], the Survivors / total is 0%. This compound had a Mean survival time with Mus musculus [2] of 7.2 days.
In the experiment on Mus musculus [2], `CN1C(Cl)=C([C@@H]2O[C@H](CO)[C@@H](O)[C@H]2O)C2=NC(N)=NC(=O)C21` (stereo partly specified) had a Mean survival time of 11 days. The Survivors / total in the experiment with Mus musculus [3] came to 10%.
`CN1C(Br)=C([C@@H]2O[C@H](CO)[C@@H](O)[C@H]2O)C2=NC(N)=NC(=O)C21` (stereo partly specified): the Mean survival time in the experiment with Mus musculus [2] turned out to be 7 days. The Survivors / total in the experiment with Mus musculus [4] was found to be 7%.
`CN1C=C([C@@H]2O[C@H](CO)[C@@H](O)[C@H]2O)C2=NC(N)=NC(=O)C21` (stereo partly specified) yielded a Mean survival time in the experiment with Mus musculus [2] of 8.1 days. In addition, in the experiment on Mus musculus [5], the Survivors / total is 8.33%.
Regarding `Nc1nc(=O)c2sc(=O)n([C@@H]3O[C@H](CO)[C@@H](O)[C@H]3O)c2[nH]1` [ISATORIBINE], the Survivors / total worked out at 91.7% in the experiment with Mus musculus [6], 91.7% in the experiment on Mus musculus [7] and 75% with Mus musculus [11]. For the same compound, the Mean survival time came out at 8.3 days in the experiment with Mus musculus [8], 10 days in the experiment on Mus musculus [9] and 9 days in the experiment with Mus musculus [10].
With `NC1=NC(=O)C2NC=C([C@@H]3O[C@H](CO)[C@@H](O)[C@H]3O)C2=N1` (stereo partly specified), the Mean survival time with Mus musculus [2] stood at 7.3 days. In the experiment with Mus musculus [5], this compound returned a Survivors / total of 8.33%.

The values are drawn from ChEMBL document CHEMBL1124978, “Direct C-glycosylation of guanine analogues: the synthesis and antiviral activity of certain 7- and 9-deazaguanine C-nucleosides” (1990).
